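Grown in 96-well plates, cells were treated for 48 hours with each compound at five concentrations. Insufficient inhibition: endpoint recorded as highest concentration tested. TGI: total growth inhibition.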
Columns and labels:
Assay in all cases: growth of human tumour cells (NCI), 48 h
[1] = tested on: SW-620 colon
[2] = tested on: SF-295 CNS
[3] = tested on: HOP-62 NSCLC
[4] = tested on: CCRF-CEM leukemia
[5] = tested on: OVCAR-4 ovarian
[6] = tested on: SK-MEL-5 melanoma
[7] = tested on: HCT-116 colon
[8] = tested on: OVCAR-5 ovarian
[9] = tested on: RPMI-8226 leukemia
[10] = tested on: PC-3 prostate
[11] = tested on: A498 renal
[12] = tested on: MOLT-4 leukemia
[13] = tested on: HCC-2998 colon

Row | Compound | TGI [1] | TGI [2] | TGI [3] | TGI [4] | TGI [5] | TGI [6] | TGI [7] | TGI [8] | TGI [9] | TGI [10] | TGI [11] | TGI [12] | TGI [13]
1 | O=C(c1ccccc1)N1CCC(CC2(c3cc4ccccc4[nH]3)OCCO2)CC1 | > 100 µM | > 100 µM | > 100 µM | > 100 µM | > 100 µM | 42.3 µM | > 100 µM | > 100 µM | 6.36 µM | > 100 µM | 62.8 µM | 58.1 µM | 
2 | O=C1Nc2nccnc2C(=O)N2CCC[C@@H]12 | > 100 µM | > 100 µM | > 100 µM | > 100 µM | > 100 µM | > 100 µM | > 100 µM | > 100 µM | > 100 µM | > 100 µM |  | > 100 µM | > 100 µM
3 | COc1cccc(C2SC(N)=Nc3c2c(C)nn3C(=O)Cc2ccccc2)c1 (centres undefined) | > 100 µM | > 100 µM | > 100 µM | > 100 µM |  | > 100 µM | > 100 µM |  | > 100 µM | > 100 µM | > 100 µM | > 100 µM | > 100 µM
4 | OC(CN(CCCl)CCCl)C(O)C(O)C(O)CN(CCCl)CCCl (centres undefined) | > 100 µM |  | > 100 µM | > 100 µM |  | > 100 µM | > 100 µM | > 100 µM | > 100 µM | > 100 µM | > 100 µM |  | > 100 µM
5 | C=C1C(=O)O[C@H]2C1C[C@@H](OC(C)=O)/C(C)=C/CC[C@@]1(C)O[C@H]21 (some centres undefined) | 20.4 µM | 50.9 µM | 34.5 µM | 4.75 µM | 28.9 µM | 18.4 µM | 20.9 µM | 31.5 µM | 13.6 µM | 31.3 µM |  | 9.7 µM | 27.9 µM
6 | CC(Nc1ccc(Cl)c(Cl)c1)c1ccncc1 (centres undefined) | 78.5 µM | 64.2 µM | 49.7 µM | > 100 µM | > 100 µM | 30.3 µM | 36.5 µM |  | 28.7 µM | 75.2 µM | 61 µM | > 100 µM | 
7 | [B-][P+](CC[P+]1([B-])[C@@H](C)[C@@H](O)[C@H](O)[C@@H]1C)(c1ccccc1)c1ccccc1OC (some centres undefined) | 31.9 µM | 29.4 µM | 33.6 µM | 46.4 µM | 31.7 µM | 29.3 µM | 35.3 µM | 32 µM | 55.4 µM | 35.6 µM | 32 µM | 41.7 µM | 
8 | COc1ccc(OC)c2c1C=CC(Br)=CC2 | > 1 µM | 0.373 µM | 0.915 µM | > 1 µM | > 1 µM | > 1 µM | 0.672 µM |  | 0.387 µM | > 1 µM | > 1 µM | 0.478 µM | 0.449 µM
9 | Cc1c(N=C/C=C/c2ccccc2)c(=O)n(-c2ccccc2)n1C | 58.4 µM | 40.6 µM | 95.8 µM | 30.1 µM | 40.9 µM | 31 µM | 29.2 µM | > 100 µM | 38.6 µM | > 100 µM | 87.2 µM | 83.8 µM | 
